Measurements as given in patent publication US12351571B2, “Substituted quinoxaline compounds as inhibitors of FGFR tyrosine kinases” (ARRAY BIOPHARMA INC., priority 2018, dated 2025).

Assays:
[1] = molecular target: T1, FGFR3 (Homo sapiens (Human), UniProt P22607); assay: LC/MS FGFR3 kobs assay (covalent modification); assay type: biochemical; details: 500 nM FGFR3, 3 μM compound
Description: (§1) The LC/MS FGFR1 and FGFR3 kobs assays were conducted as follows. 500 nM FGFR1 (Array BioPharma construct p1702; SEQ ID NO: 1, amino acids 458-765) or FGFR3 (Array BioPharma construct p1700; SEQ ID NO: 5, amino acids 449-759) were incubated with 3 μM compound in 25 mM HEPES (4-(2-hydroxyethyl)-1-piperazineethanesulfonic acid), pH 7.4, 5 mM MgCl2, 150 mM NaCl, 0.5 mM TCEP (tris(2-carboxyethyl) phosphine), and 2% DMSO in a total volume of 20 μL. At each time point, the reaction was quenched with 20 μL of 0.4% formic acid. The extent of protein modification by each compound was determined by LC/MS on an Agilent Technologies 6520 Q-TOF LC/MS. Protein signals were then automatically deconvoluted using Agilent Masshunter software. Deconvoluted mass signals were exported to Tibco Spotfire data analysis program for further processing and normalization.
(§2) Data analysis included five steps. First, the signals for the “DMSO Controls” were analyzed to determine the percent of signal associated with unmodified FGFR1 or FGFR3 at each time point. Next, the percent of the signal associated with the covalent modification was determined. Third, the average nonmodified “DMSO Control” signal was used to normalize the modified protein signals at each time point. The percent of unmodified protein was fit to an exponential decay model where A0 is the Percent Unmodified at the start of the reaction, and kobs is the observed rate constant over the time period.
Target sequence in this assay (P22607 449-759): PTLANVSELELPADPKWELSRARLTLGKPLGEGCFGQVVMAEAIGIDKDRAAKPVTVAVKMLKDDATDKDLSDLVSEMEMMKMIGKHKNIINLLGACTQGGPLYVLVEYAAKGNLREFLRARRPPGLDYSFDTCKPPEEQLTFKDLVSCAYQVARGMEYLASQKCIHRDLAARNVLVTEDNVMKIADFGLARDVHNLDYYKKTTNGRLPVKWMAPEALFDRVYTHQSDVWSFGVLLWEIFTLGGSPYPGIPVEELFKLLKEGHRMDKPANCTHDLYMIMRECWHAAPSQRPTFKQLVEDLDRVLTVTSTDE

[2] = molecular target: T1, FGFR3; assay: FGFR Enzyme Activity Assay (LanthaScreen TR-FRET), FGFR3; assay type: biochemical; details: 25 μM ATP, 10 minute incubation; read-out: FGFR3 Enz FRET IC50
Description: FGFR3 kinase activity was measured by the Invitrogen LanthaScreen™ Assay technology which directly measures the amount of substrate phosphorylation by TR-FRET using a flourescently-labeled peptide and Europium-labeled antibody. Briefly, 750 pM N-terminal GST-HIS6 fusion protein with a 3C cleavage site recombinant human FGFR3 (amino acids R397-T806) (ProQinase Cat. No. 1068-0000-1) was incubated with 100 nM Alexa Fluor® 647-Poly-GT Peptide Substrate (Life Technologies Cat. No. PV5836) and 25 μM ATP along with test compound in a buffer consisting of 250 mM HEPES, 25 mM MgCl2, 0.05% TritonX-100, pH 7.5, and 2% DMSO. Compounds were typically prepared in a threefold serial dilution in DMSO and added to the assay to give the appropriate final concentration. After a 10 minute incubation at 22° C., an equal volume of 2 nM LanthaScreen® Eu-PY20 Antibody (Life Technologies Cat. No. PV5691) and 10 mM EDTA were added to quench the kinase reaction and start the detection reaction. After an additional 60 minute incubation at 22° C., the reaction was measured using a PerkinElmer EnVision multimode plate reader via TR-FRET dual wavelength detection, and the percent of control (POC) calculated using a ratiometric emission factor. 100 POC was determined using no test compounds and 0 POC was determined using no enzyme. The POC values were fit to a 4-parameter logistic curve as a function of the concentration of the compound, and the IC50 value is the point where the curve crosses 50 POC.
Target sequence in this assay (P22607 397-806): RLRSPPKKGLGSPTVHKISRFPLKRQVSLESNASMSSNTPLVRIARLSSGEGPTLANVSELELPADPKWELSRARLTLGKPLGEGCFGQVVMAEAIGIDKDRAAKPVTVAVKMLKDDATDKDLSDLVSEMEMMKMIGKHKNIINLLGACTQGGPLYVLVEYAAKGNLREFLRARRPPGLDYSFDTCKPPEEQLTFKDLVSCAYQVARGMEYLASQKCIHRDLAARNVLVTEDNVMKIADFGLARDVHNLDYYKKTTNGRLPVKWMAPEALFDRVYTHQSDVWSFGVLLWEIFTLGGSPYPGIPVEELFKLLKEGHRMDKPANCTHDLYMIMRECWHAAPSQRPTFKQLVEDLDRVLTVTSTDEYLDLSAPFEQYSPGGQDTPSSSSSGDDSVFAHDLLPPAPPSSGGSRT

[3] = molecular target: recombinant human FGFR1 catalytic domain (Homo sapiens (Human), UniProt P11362); assay: FGFR Enzyme Activity Assay (LanthaScreen TR-FRET), FGFR1; assay type: biochemical; details: 15 μM ATP, 20 minutes incubation; read-out: FGFR1 Enz FRET IC50
Description: FGFR1 kinase activity was measured by the Invitrogen LanthaScreen™ Assay technology which directly measures the amount of substrate phosphorylation by Time-resolved fluorescence energy transfer (TR-FRET) using a flourescently-labeled peptide and Europium-labeled antibody. Briefly, 200 pM His-tagged recombinant human FGFR1 catalytic domain (amino acids 308-731) (Life Technologies Cat. No. PR4660A) was incubated with 100 nM Alexa Fluor® 647-Poly-GT Peptide Substrate (Life Technologies Cat. No. PV5836) and 15 μM ATP along with test compound in a buffer consisting of 250 mM HEPES, 25 mM MgCl2, 0.05% TritonX-100, pH 7.5, and 2% DMSO. Compounds were typically prepared in a threefold serial dilution in DMSO and added to the assay to give the appropriate final concentration. After a 20 minutes incubation at 22° C., an equal volume of 2 nM LanthaScreen® Eu-PY20 Antibody (Life Technologies Cat. No. PV5691) and 10 mM EDTA was added to quench the kinase reaction and start the detection reaction. After an additional 60 minute incubation at 22° C., the reaction was measured using a PerkinElmer EnVision multimode plate reader via TR-FRET dual wavelength detection, and the percent of control (POC) calculated using a ratiometric emission factor. 100 POC was determined using no test compounds and 0 POC was determined using no enzyme. The POC values were fit to a 4-parameter logistic curve as a function of the concentration of the compound, and the IC50 value is the point where the curve crosses 50 POC.

[4] = molecular target: FGFR1 (Homo sapiens (Human), UniProt P11362); assay: LC/MS FGFR1 kobs assay (covalent modification); assay type: biochemical; details: 500 nM FGFR1, 3 μM compound
Description: as §1, §2

[5] = molecular target: human wild type FGFR3 (Homo sapiens (Human), UniProt P22607); assay: FGFR3 pERK Cell Assay; assay type: cell-based; details: HEK-293 cells, 1 hour compound, 100 ng/ml human FGF-acidic; maximum concentration 5 μM
Description: HEK-293 cells transfected with dox-inducible human wild type FGFR3 (SEQ ID NO: 5) were plated in a collagen or poly-D-lysine coated 96 well flat bottom plates at 4×10^5 cells/well in complete DMEM medium containing 10% FBS and 1 μg/ml doxycycline and allowed to attach for 24 h at 37° C., 5% CO2. Cells were treated with compound using 1:3 serial dilutions with a maximum final concentration of 5 μM. Compound was incubated on cells for 1 hour at 37° C., 5% CO2. Cells were then stimulated with a final concentration of 100 ng/ml human FGF-acidic (R&D Systems Cat number 232-FA/CF) for 5 minutes at 37° C., 5% CO2. Medium was removed, and cells were lysed with lysis buffer containing phosphatase and protease inhibitors. Phospho ERK1/2 was measured using the Meso Scale Discovery sandwich assay (Meso Scale Discovery cat. no. K151DWD). The assay captures phospho ERK1/2 and detects with a sulfo-tagged total ERK1/2 antibody. The chemiluminescent signal was read on the Sector Imager Plate reader. 100 POC was determined using no test compounds and 0 POC was determined using a control compound. The POC values were fit to a 4-parameter logistic curve as a function of the concentration of the compound, and the IC50 value is the point where the curve crosses 50 POC.

Sequence of FGFR1 (P11362 458-765): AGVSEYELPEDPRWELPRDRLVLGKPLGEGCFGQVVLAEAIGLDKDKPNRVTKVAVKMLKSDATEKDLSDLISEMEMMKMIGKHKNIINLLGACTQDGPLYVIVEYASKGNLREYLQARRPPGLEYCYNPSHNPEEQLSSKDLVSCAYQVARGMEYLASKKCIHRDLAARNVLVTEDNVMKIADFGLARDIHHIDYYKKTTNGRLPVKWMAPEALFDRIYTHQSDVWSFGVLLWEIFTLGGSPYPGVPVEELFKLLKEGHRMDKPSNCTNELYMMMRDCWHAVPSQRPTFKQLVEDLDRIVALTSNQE
Sequence of recombinant human FGFR1 catalytic domain (P11362 other isoform, or with tags, fused parts or gaps): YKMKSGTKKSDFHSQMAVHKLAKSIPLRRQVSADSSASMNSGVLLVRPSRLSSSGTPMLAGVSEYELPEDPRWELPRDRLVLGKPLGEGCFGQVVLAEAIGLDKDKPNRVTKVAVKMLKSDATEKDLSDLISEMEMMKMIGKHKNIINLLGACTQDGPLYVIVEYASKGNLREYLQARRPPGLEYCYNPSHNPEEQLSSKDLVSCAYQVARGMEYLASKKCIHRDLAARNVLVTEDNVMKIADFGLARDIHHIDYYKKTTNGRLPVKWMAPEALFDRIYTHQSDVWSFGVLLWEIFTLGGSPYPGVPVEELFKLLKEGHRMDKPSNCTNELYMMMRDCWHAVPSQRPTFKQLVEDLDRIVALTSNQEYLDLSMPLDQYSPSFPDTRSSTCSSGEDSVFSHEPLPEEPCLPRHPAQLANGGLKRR
Sequence of human wild type FGFR3 (P22607 23-806): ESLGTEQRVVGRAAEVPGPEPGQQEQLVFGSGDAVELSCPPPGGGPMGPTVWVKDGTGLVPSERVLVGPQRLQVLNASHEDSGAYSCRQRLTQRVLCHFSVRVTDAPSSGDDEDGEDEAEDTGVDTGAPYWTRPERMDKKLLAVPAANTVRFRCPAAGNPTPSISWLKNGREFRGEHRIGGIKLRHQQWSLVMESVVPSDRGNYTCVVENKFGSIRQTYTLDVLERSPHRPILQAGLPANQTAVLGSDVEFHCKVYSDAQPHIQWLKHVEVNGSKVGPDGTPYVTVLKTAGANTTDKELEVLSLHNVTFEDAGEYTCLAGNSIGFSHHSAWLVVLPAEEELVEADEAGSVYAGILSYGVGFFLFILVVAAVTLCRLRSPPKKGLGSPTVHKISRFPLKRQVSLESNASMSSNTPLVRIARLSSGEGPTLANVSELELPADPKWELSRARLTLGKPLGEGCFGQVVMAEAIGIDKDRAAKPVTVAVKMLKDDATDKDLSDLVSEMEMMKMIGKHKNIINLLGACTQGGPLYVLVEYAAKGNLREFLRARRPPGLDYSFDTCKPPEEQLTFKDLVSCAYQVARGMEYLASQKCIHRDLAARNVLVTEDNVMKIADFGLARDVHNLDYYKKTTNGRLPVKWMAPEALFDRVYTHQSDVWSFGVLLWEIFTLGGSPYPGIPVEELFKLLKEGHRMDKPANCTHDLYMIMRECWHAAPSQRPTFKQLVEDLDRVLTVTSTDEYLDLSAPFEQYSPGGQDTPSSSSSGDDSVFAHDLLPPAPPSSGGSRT

SMILES | FGFR3 Enz kobs [1] [min⁻¹] | IC50 [2] [nM] | IC50 [3] [nM] | FGFR1 Enz kobs [4] [min⁻¹] | IC50 [5] [nM]
C=CC(=O)N1CC(C(=O)N2CCN(c3cccc(-c4cnc5ccc(Nc6cc(OC)cc(OC)c6)cc5n4)c3)CC2)C1 [Example 25, 1-(3-(4-(3-(7-((3,5-dimethoxyphenyl)amino)-quinoxalin-2-yl)phenyl)-piperazine-1-carbonyl)-azetidin-1-yl)prop-2-en-1-one] | 0.00369 | 479 | 1760 | 0.00404 | 
COc1cc(Nc2ccc3ncc(-c4cnn([C@@H]5CCN(C(=O)C6CN(C(=O)/C=C/CN(C)C)C6)C5)c4)nc3c2)cc(OC)c1 [Example 20, (R,E)-1-(3-(3-(4-(7-((3,5-dimethoxyphenyl)amino)-quinoxalin-2-yl)-1H-pyrazol-1-yl)pyrrolidine-1-carbonyl)azetidin-1-yl)-4-(dimethylamino)but-2-en-1-one] | 0.00892 | 42 | 194 | 0.00141 | 2740
C=CC(=O)N1CC(CN2CCC(n3cc(-c4cnc5ccc(Nc6cc(OC)cc(OC)c6)cc5n4)cn3)CC2)C1 [Example 30, 1-(3-((4-(4-(7-((3,5-dimethoxyphenyl)amino)quinoxalin-2-yl)-1H-pyrazol-1-yl)piperidin-1-yl)methyl)azetidin-1-yl)prop-2-en-1-one] | 0.01591 | 26 | 147 | 0.00172 | 24
COc1cc(Nc2ccc3ncc(-c4cnn([C@@H]5CCN(C(=O)C6(F)CN(C(=O)/C=C/CN(C)C)C6)C5)c4)nc3c2)cc(OC)c1 [Example 19, (R,E)-1-(3-(3-(4-(7-((3,5-dimethoxyphenyl)amino)-quinoxalin-2-yl)-1H-pyrazol-1-yl)pyrrolidine-1-carbonyl)-3-fluoro-azetidin-1-yl)-4-(dimethyl-amino)but-2-en-1-one] | 0.03902 | 50 | 288 | 0.00339 | 114
COc1cc(Nc2ccc3ncc(-c4cn(C5CCN(C(=O)C6(F)CN(C(=O)/C=C/CN(C)C)C6)CC5)nc4C)nc3c2)cc(OC)c1 [Example 22, (E)-1-(3-(4-(4-(7-((3,5-dimethoxyphenyl)amino)-quinoxalin-2-yl)-3-methyl-1H-pyrazol-1-yl)-piperidine-1-carbonyl)-3-fluoroazetidin-1-yl)-4-(dimethylamino)but-2-en-1-one] | 0.05725 | 79 | 339 | 0.00673 | 113
COc1cc(Nc2ccc3ncc(-c4ccc(N5CCN(C(=O)C6(F)CN(C(=O)/C=C/CN(C)C)C6)CC5)nc4C)nc3c2)cc(OC)c1 [Example 13, (E)-1-(3-(4-(5-(7-((3,5-dimethoxyphenyl)amino)-quinoxalin-2-yl)-6-methylpyridin-2-yl)-piperazine-1-carbonyl)-3-fluoroazetidin-1-yl)-4-(dimethylamino)but-2-en-1-one] | 0.02606 | 1830 | 2150 | 0.00293 | 

The remaining lines, values ahead:

FGFR3 Enz kobs [1] [min⁻¹] | IC50 [2] [nM] | IC50 [3] [nM] | FGFR1 Enz kobs [4] [min⁻¹] | IC50 [5] [nM] | SMILES
0.00987 | 2 | 10 | 0.00264 | 12 | C=CC(=O)N1CC(O)(C(=O)N2CCC(n3cc(-c4cnc5ccc(N(C)c6cc(OC)cc(OC)c6)cc5n4)cn3)CC2)C1 [Example 27, 1-(3-(4-(4-(7-((3,5-dimethoxyphenyl)(methyl)amino)quinoxalin-2-yl)-1H-pyrazol-1-yl)piperidine-1-carbonyl)-3-hydroxyazetidin-1-yl)prop-2-en-1-one]
0.00945 | 9 | 54 | 0.00127 | 44 | C=CC(=O)N1CC(C(=O)N2CCC(n3cc(-c4cnc5ccc(Nc6cc(OC)cc(OC)c6)cc5n4)cn3)CC2)C1 [Example 1, 1-(3-(4-(4-(7-((3,5-dimethoxyphenyl)amino)quinoxalin-2-yl)-1H-pyrazol-1-yl)piperidine-1-carbonyl)azetidin-1-yl)prop-2-en-1-one]
0.00302 | 10 | 49 | 0.00038 | 207 | C=CC(=O)N1CC[C@@H](C(=O)N2CCC(n3cc(-c4cnc5ccc(Nc6cc(OC)cc(OC)c6)cc5n4)cn3)CC2)C1 [Example 2, (R)-1-(3-(4-(4-(7-((3,5-dimethoxyphenyl)amino)-quinoxalin-2-yl)-1H-pyrazol-1-yl)piperidine-1-carbonyl)pyrrolidin-1-yl)-prop-2-en-1-one]
0.00166 | 10 | 51 |  | 135 | C=CC(=O)N1CCC(C(=O)N2CCC(n3cc(-c4cnc5ccc(Nc6cc(OC)cc(OC)c6)cc5n4)cn3)CC2)CC1 [Example 3, 1-(4-(4-(4-(7-((3,5-dimethoxyphenyl)amino)-quinoxalin-2-yl)-1H-pyrazol-1-yl)piperidine-1-carbonyl)piperidin-1-yl)prop-2-en-1-one]
0.07246 | 13 | 89 | 0.0107 | 22 | C=CC(=O)N1CC(C#N)(C(=O)N2CCC(n3cc(-c4cnc5ccc(Nc6cc(OC)cc(OC)c6)cc5n4)cn3)CC2)C1 [Example 12, 1-acryloyl-3-(4-(4-(7-((3,5-dimethoxyphenyl)-amino)quinoxalin-2-yl)-1H-pyrazol-1-yl)-piperidine-1-carbonyl)-azetidine-3-carbonitrile]
